Test results from US6610324B2, “Flupirtine in the treatment of fibromyalgia and related conditions” (The McLean Hospital Corporation, priority 1999, dated 2003).

Tests used:
[1] = cited from earlier work
[2] = in some, but not all, studies; cited from earlier work
[3] = system: patients with fibromyalgia; assay: Flupirtine treatment of patients with fibromyalgia; assay type: in vivo
Text: Flupirtine is an analgesic that has been used in Europe to treat the pain associated with surgery, cancer, trauma, and liver disease. It acts via the central nervous system through non-opite pain pathways, possibly involving the thalamus or spinal pain pathways.

CCOC(=O)Nc1ccc(NCc2ccc(F)cc2)nc1N [flupirtine, 2-amino-3-carbethoxyamino-6-(4-fluorobenzylamino)-pyridine]
withdrawal symptoms ([1]; abrupt discontinuation of administration): does not produce withdrawal symptoms | sedation ([1]; compared with opiate drugs): less sedating than opiate drugs | addiction and abuse ([1]; compared with opiates, no reports of abuse): not addictive | tolerance to analgesic effects ([1]; human, in vivo): do not acquire a tolerance | reported side effects ([1]; relatively safe at dosages lower than 600 mg per day): dizziness, drowsiness, pruritus, dry mouth, and, less frequently, nausea, depression, sleep disturbance, and headache | cardiovascular side effects ([1]; unlike opiates): not associated with cardiovascular side effects | muscle relaxant properties ([1]; unlike opiates): exhibits muscle relaxant properties | effectiveness in relieving pain compared with opiates [2]: as effective as opiates | analgesic action compared with opiates ([3]; patients with fibromyalgia and related conditions): roughly comparable to the effect produced by opiates | effect on chronic and severe body pain ([3]; some patients with fibromyalgia, also where high doses of opiates, NSAIDs and placquenil fail): completely eliminating the chronic and severe body pain
